The results in this text go back to article PMC7876048, “Mutant-selective degradation by BRAF-targeting PROTACs” (Nature Communications, 2021).

Assay [1] concerns SK-MEL-28 cells (Class 1, BRAF^V600E). Kind of assay: Cell proliferation (MTS) assay. The note with it: Homo sapiens, 72 h, 3 days, read-out: EC50, cell growth. Format: cell-based.
Assay [2] deals with CAL-12-T cells (Class 3, BRAF^G466V). Kind of assay: Cell proliferation (MTS) assay. It is filed as cell-based. As to conditions: 5 days. On the procedure:
[…] 2 mg/ml MTS (Promega Corp., Madison, WI: G5421) and 25 μM phenazine methosulfate (Sigma, St. Louis, MO) were combined 19:1 and then added to cells (1 volume combined reagent: 5 volumes medium) and incubated for 1–3 h. Mitochondrial reduction of MTS to the formazan derivative was monitored by measuring the medium’s absorbance at 480 nm using a Perkin Elmer Envision Plate reader.

In assay [3] the test system is SK-MEL-246 cells (Class 2, BRAF^G469A). The assay is described as follows: Cell proliferation (MTS) assay. It is filed as cell-based.
For assay [4], the system named is H1666 cells (Class 3, BRAF^G466V). The assay is described as follows: Cell proliferation (MTS) assay. It is filed as cell-based. The note with it: 5 days.
Assay [5] relates to SK-MEL-239 C4 cells (BRAF^WT/BRAF-p61^V600E). The assay is described as follows: Cell proliferation (MTS) assay. Format: cell-based. The note with it: 5 days.
Assay [6] deals with BRAF V600E (Homo sapiens, UniProt P15056, V600E). The assay is described as follows: Elisa kinase inhibition assay (Carna Biosciences). Format: biochemical. On the set-up: purchased Carna Biosciences. As to conditions: Km ATP, duplicate. On the procedure:
Kinase assays were performed by Carna Biosciences by their protocol in duplicate using Km amounts of ATP calculated for each kinase.

Assay [7] concerns the target T1, BRAF^V600E (SK-MEL-28 cells, homozygous) (Homo sapiens, UniProt P15056, V600E).
T1 construct: endogenous in cells; host or cells: SK-MEL-28
The assay is described as follows: BRAF degradation by immunoblot in SK-MEL-28 cells. It is filed as cell-based. On the procedure:
(§1) Cells were plated in 6 well dishes (5 × 10^5–8 × 10^5 cells) and allowed to attach overnight. […] The plates were then placed on ice and washed 1x with chilled PBS and lysed in buffer containing 25 mM Tris-HCl [pH 7.4], 0.25% sodium deoxycholate, 150 mM NaCl, 1% Triton X-100, supplemented with protease inhibitors (1x Roche protease inhibitor cocktail) and phosphatase inhibitors (10 mM NaF, 1 mM Na3OV4, and 20 mM β-glycerophosphate). Lysates were then cleared at 21,000 g for 10 min at 4 °C. Protein concentrations of the supernatants were then quantified using a Pierce BCA Protein Assay. 12–40 µg of protein were separated using a gradient (4–20%) Criterion TGX precast gel and transferred unto a nitrocellulose membrane. The membranes were then blocked in 5% non-fat milk in TBST (Tris-buffered Saline with Tween 20) for 1 h before probing with the indicated primary antibody overnight. Membranes were imaged using Bio-Rad Image Lab software using ECL prime detection reagent (GE Healthcare, RPN2232 or ThermoScientific, 34095).
(§2) Western blot data was quantified by using the band feature in Image Lab, and values were averaged and analyzed in GraphPad Prism. DC50 and DMAX values were fitted using a three parameter [inhibitor] versus response and reported directly from the Prism output. Mean ± SD and unpaired t-tests were performed in GraphPad Prism.

Assay [8] deals with MEK and ERK phosphorylation (SK-MEL-28 cells). The assay is described as follows: MEK and ERK phosphorylation by immunoblot in SK-MEL-28 cells. Format: cell-based. On the procedure: as §1, §2
On the technique in general: Immunoblotting shows a protein as a band on a membrane.

The structures appear in SMILES notation.

BRAF V600E, sequence (P15056 whole entry V600E): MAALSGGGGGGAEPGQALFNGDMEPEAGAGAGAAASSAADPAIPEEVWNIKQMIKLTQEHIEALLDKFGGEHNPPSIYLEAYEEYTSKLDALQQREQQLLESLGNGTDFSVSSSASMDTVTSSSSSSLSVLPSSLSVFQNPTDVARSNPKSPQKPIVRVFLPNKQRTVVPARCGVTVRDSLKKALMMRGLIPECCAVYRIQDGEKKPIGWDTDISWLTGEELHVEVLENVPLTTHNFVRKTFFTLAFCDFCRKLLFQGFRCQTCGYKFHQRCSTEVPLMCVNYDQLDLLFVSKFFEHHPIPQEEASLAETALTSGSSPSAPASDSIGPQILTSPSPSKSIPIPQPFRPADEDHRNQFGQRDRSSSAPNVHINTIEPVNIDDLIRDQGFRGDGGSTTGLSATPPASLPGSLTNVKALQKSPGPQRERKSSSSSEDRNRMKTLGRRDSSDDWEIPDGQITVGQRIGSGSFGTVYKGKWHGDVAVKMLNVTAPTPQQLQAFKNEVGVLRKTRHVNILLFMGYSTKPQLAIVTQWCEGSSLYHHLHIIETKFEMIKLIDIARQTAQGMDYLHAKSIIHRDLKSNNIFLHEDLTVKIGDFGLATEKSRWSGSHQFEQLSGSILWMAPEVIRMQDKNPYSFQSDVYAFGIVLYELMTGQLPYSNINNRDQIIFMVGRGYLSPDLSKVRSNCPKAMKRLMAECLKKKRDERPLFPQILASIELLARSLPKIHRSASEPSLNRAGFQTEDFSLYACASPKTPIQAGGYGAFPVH
T1 sequence (P15056 whole entry V600E): as above

With `CCCS(=O)(=O)Nc1ccc(F)c(C(=O)c2c[nH]c3ncc(-c4ccc(Cl)cc4)cc23)c1F` [vemurafenib, reference compound], the EC50 in assay [1] amounted to 0.215 ± 0.00109 µM. For the same compound, the “inhibition of cell growth / effect on cell viability” value in assay [2] is reported as “minimal effect on cell viability”. Further, the “inhibition of cellular growth” value in assay [3] (5 days, at concentrations above 1 μM, not sustained at 10 μM) is recorded as “some inhibition”. Further, in assay [4], the cell growth inhibition entry is “less than 50%”. Moreover, the “effect on cell growth” value in assay [5] is “minimal effect”.

Regarding `CCCS(=O)(=O)Nc1ccc(F)c(C(=O)c2c[nH]c3ncc(-c4ccc(N5CCN(CC(=O)N[C@H](C(=O)N6C[C@@H](O)C[C@H]6C(=O)NCc6ccc(-c7scnc7C)cc6)C(C)(C)C)CC5)cc4)cc23)c1F` [SJF-0661], the EC50 in assay [1] was 0.243 ± 0.00109 µM; in assay [3] (120 h, 5-day treatment, read-out: EC50, cell growth), 0.278 ± 0.00107 µM. In addition, the “inhibition of cell growth / effect on cell viability” value in assay [2] is “minimal effect on cell viability”. In addition, in assay [6], inhibition was half-maximal at 0.03 µM (IC50). Moreover, in assay [7], the “effect on BRAF protein levels” value was “did not decrease BRAF protein levels”. Also, the “concentration giving maximal inhibition of MEK and ERK phosphorylation / maximal suppression of p-ERK” value in assay [8] is on record as 100 nM. For the same compound, the “effect on cell growth” value in assay [5] is “minimal effect”.

By EC50 is commonly meant the midpoint of the concentration-response curve. For orientation: IC50 means the concentration that inhibits the measured activity by half. The low end stands for inhibition by little substance, the high end for a need for much substance.
